Measurements as given in patent publication US20040157867A1, “Pyrimidine phosphorylase as a target for imaging and therapy” (priority 2004, published 2004).
Read-outs that look alike come from different tables or passages of the source.

Columns and labels:
[1] = cited from earlier work
[2] = tested on: Dunning rat prostatic tumors; experiment: 5-X-Ura incorporation into tumor DNA in vivo; settings: BrUra intravenously, tumors harvested 105 minutes after injection
Description: Dunning rat prostatic tumors were implanted (250,000 cells) subcutaneously in 3 rats. Two weeks post-implantation, the tumors had reached 7-20 g in size and the rats weighed about 250 g. At 2 weeks post-implantation, TPase was measured. BrUra was prepared in an aqueous solution, adjusted to pH 9 (the same formulation used clinically for its analog, FUra), and injected intravenously via a tail vein. The rats were sacrificed 105 minutes after the injection, and the tumors were harvested. DNA from the tumor was isolated, digested, and the nucleosides analyzed by HPLC (Klecker, 1994). BrdUrd was found in the DNA of the tumors, replacing 0.15% of the dThd bases.

[3] = tested on: MOLT4; experiment: Growth inhibition of MOLT4 tumor cells by BrUra; assay type: cell-based, human; settings: 72 hr
Description: (§1) The five human-derived tumor cell lines shown below were incubated with BrUra at concentrations from 0.5 to 4.5 mM for 72 hours. (Cell lines are available at the ATCC, Manassas, Va.) Separate incubations were conducted in the presence or absence of 50 μM dUrd. Growth inhibition was determined as a percentage of control values for cells incubated without BrUra or dUrd. Consistent with the experiments described in Example 8, co-incubation with dUrd increased cytotoxicity of BrUra in all groups. As expected from their high level of TPase expression, U937 were the only cells with notable toxicity at 0.5 mM, and also the greatest toxicity at 1.5 and 4.5 mM. CEM, MOLT4, and K562 were substantially less affected by incubation with BrUra, consistent with a low intracellular activation rate because of low TPase expression.
(§2) % Growth Inhibition, Based Upon Control Doubling Time=24 Hr. BrUra Concentrations Ranged from 0.5 to 4.5 mM. Incubations were Conducted for 72 Hr in the Presence or Absence of 50 μM ddUrd.

[4] = target: T1, TPase (Homo sapiens, UniProt P19971); experiment: TPase inhibition in intact human hepatocytes ([3H]-Ura formation from [3H]-dUrd); assay type: cell-based; design: Cryopreserved human hepatocytes were procured from In Vitro Technologies, Inc; host or cells: cryopreserved human hepatocytes; settings: [3H]-dUrd 0.2 μM, one hour
T1 sequence (P19971 11-482): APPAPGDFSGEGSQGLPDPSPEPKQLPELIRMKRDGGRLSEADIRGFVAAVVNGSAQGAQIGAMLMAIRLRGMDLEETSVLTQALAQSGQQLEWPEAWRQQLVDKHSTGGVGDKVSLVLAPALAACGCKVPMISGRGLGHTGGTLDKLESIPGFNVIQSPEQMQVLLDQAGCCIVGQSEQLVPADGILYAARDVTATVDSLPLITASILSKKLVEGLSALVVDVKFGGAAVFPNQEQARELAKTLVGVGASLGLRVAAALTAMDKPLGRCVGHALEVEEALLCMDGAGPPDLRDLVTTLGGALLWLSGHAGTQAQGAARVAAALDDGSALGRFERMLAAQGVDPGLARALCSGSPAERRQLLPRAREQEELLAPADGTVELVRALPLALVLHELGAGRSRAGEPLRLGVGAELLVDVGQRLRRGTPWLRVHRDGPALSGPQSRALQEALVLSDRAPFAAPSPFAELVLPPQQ
Description: Cryopreserved human hepatocytes were procured from In Vitro Technologies, Inc. (Catonsville, Md.) and processed according to the supplier's instructions. TPase activity was monitored for one hour by measuring formation of [^3H]-Ura from [^3H]-dUrd, 0.2 μM. Co-incubation of tritiated dUrd with 100 μM BrUra inhibited TPase by 48%, and 500 μM of BrUra inhibited TPase by 85%.

[5] = target: T1, TPase; experiment: TPase inhibition in tumor cells co-incubated with human liver cytosol ([3H]-dThd incorporation into DNA); assay type: cell-based; settings: BrUra 500 μM, U-937 or MOLT-4 cells with human liver cytosol (S100), 5-35% without BrUra
Description: [^3H]-dThd (0.02 μM) or [^3H]-dUrd (0.1 μM) was incubated with either U-937 or MOLT-4 tumor cells, and incorporation of [[…] into DNA was measured after 3 hours. Cytosol (S100) was prepared from human liver by differential centrifugation. This cytosol, which contains TPase, was co-incubated with U-937 or MOLT4 tumor cells to simulate the degradation of pyrimidine nucleosides in the body. Incorporation of [^3H]-dThd into DNA was decreased to 5-35% of baseline levels. When BrUra (500 μM) was also added to the incubation mixture, TPase inhibition was observed as increased incorporation of [^3H]-dThd in DNA, back to 39-89% of baseline levels.

[6] = tested on: U937; experiment: Growth inhibition of U937 tumor cells by BrUra; assay type: cell-based, human; settings: 72 hr
Description: as §1, §2

[7] = tested on: K562; experiment: Growth inhibition of K562 tumor cells by BrUra; assay type: cell-based, human; settings: 72 hr
Description: as §1, §2

[8] = tested on: CEM; experiment: Growth inhibition of CEM tumor cells by BrUra; assay type: cell-based, human; settings: 72 hr
Description: as §1, §2

[9] = tested on: Raji; experiment: Growth inhibition of Raji tumor cells by BrUra; assay type: cell-based, human; settings: 72 hr
Description: as §1, §2

[10] = tested on: U-937 cells; experiment: Enhancement of BrUra trapping into DNA by dR-1-P prodrugs; assay type: cell-based, human; settings: 24 hours, 20 μM BrUra and 20 μM deoxyribonucleoside
Description: The effect of dR-1-P prodrugs was examined in U-937 cells. Cells were incubated for 24 hours with 20 μM BrUra and 20 μM of six different deoxyribonucleosides. The use of prodrugs for dR-1-P is described as a way of driving the reaction catalyzed by TPase in the direction of thymidine production. As illustrated in the bar chart, in FIG. 3, the maximum enhancement of BrUra trapping in DNA was 24-fold, for dUrd. An increase of 6-fold was found for dIno.

[11] = tested on: U-937 cells implanted subcutaneously in nude mice; experiment: Incorporation of [3H]-BrUra into tumor DNA in vivo, modulation with eniluracil; settings: eniluracil 2 mg/kg i.p. thirty minutes prior to i.v. [3H]-BrUra, 24 hours
Description: U-937 cells (ATCC; Manassas, Va.) were implanted subcutaneously in nude mice. When tumors grew to about 0.5 gram, [^3H]-BrUra was injected i.v. One set of mice received eniluracil, 2 mg/kg, injected i.p. thirty minutes prior to i.v. [3H]-BrUra, and the other set received no treatment prior to [^3H]-BrUra i.v. Both sets of mice were killed 24 hours later, and tumors and blood removed. DNA from tumors was extracted and analyzed using our established techniques (Klecker et al., 1994). [^3H]-BrdUrd was found in DNA in tumors by radiochromatography, indicating conversion of [^3H]-BrUra in vivo, similar to our results for cell culture.

Structure (SMILES): O=c1[nH]cc(F)c(=O)[nH]1 [5-FUra, 5-fluorouracil]
- increase in 5-FUra exposure ([1]; presence versus absence of eniluracil): 50- to 100 fold
- Plasma clearance of 5-FUra ([1]; with eniluracil): 0.1 L/min
- recovered unchanged in the urine ([1]; with eniluracil): 77%
- tolerated dose upon continuous dosing ([1]; with eniluracil): 2 mg/day per square meter of body surface
- Plasma clearance of 5-FUra ([1]; without eniluracil): 5.0 L/min
- recovered unchanged in the urine ([1]; without eniluracil): less than 10%

Structure (SMILES): O=c1[nH]cc(Br)c(=O)[nH]1 [BrUra, bromouracil]
- BrdUrd found in DNA of the tumors, replacing dThd bases [2]: 0.15%
- % Growth Inhibition ([3]; MOLT4, BrUra 0.5 mM, with 50 μM dUrd): 8%
- % Growth Inhibition ([3]; MOLT4, BrUra 0.5 mM, without dUrd): 6%
- % Growth Inhibition ([3]; MOLT4, BrUra 1.5 mM, with 50 μM dUrd): 25%
- % Growth Inhibition ([3]; MOLT4, BrUra 1.5 mM, without dUrd): 26%
- % Growth Inhibition ([3]; MOLT4, BrUra 4.5 mM, with 50 μM dUrd): 85%
- % Growth Inhibition ([3]; MOLT4, BrUra 4.5 mM, without dUrd): 66%
- TPase inhibition ([4]; 100 μM BrUra): 48%
- TPase inhibition ([4]; 500 μM BrUra): 85%
- incorporation of [3H]-dThd in DNA, of baseline levels [5]: 39-89%
- % Growth Inhibition ([6]; U937, BrUra 0.5 mM, with 50 μM dUrd): 28%
- % Growth Inhibition ([6]; U937, BrUra 0.5 mM, without dUrd): 16%
- % Growth Inhibition ([6]; U937, BrUra 1.5 mM, with 50 μM dUrd): 77%
- % Growth Inhibition ([6]; U937, BrUra 1.5 mM, without dUrd): 47%
- % Growth Inhibition ([6]; U937, BrUra 4.5 mM, with 50 μM dUrd): 100%
- % Growth Inhibition ([6]; U937, BrUra 4.5 mM, without dUrd): 100%
- % Growth Inhibition ([7]; K562, BrUra 0.5 mM, with 50 μM dUrd): −6%
- % Growth Inhibition ([7]; K562, BrUra 0.5 mM, without dUrd): −7%
- % Growth Inhibition ([7]; K562, BrUra 1.5 mM, with 50 μM dUrd): 28%
- % Growth Inhibition ([7]; K562, BrUra 1.5 mM, without dUrd): 13%
- % Growth Inhibition ([7]; K562, BrUra 4.5 mM, with 50 μM dUrd): 77%
- % Growth Inhibition ([7]; K562, BrUra 4.5 mM, without dUrd): 57%
- % Growth Inhibition ([8]; BrUra 0.5 mM, with 50 μM dUrd): 13%
- % Growth Inhibition ([8]; BrUra 0.5 mM, without dUrd): 6%
- % Growth Inhibition ([8]; BrUra 1.5 mM, with 50 μM dUrd): 65%
- % Growth Inhibition ([8]; BrUra 1.5 mM, without dUrd): 23%
- % Growth Inhibition ([8]; BrUra 4.5 mM, with 50 μM dUrd): 95%
- % Growth Inhibition ([8]; BrUra 4.5 mM, without dUrd): 89%
- % Growth Inhibition ([9]; BrUra 0.5 mM, with 50 μM dUrd): 9%
- % Growth Inhibition ([9]; BrUra 0.5 mM, without dUrd): 2%
- % Growth Inhibition ([9]; BrUra 1.5 mM, with 50 μM dUrd): 24%
- % Growth Inhibition ([9]; BrUra 1.5 mM, without dUrd): 27%
- % Growth Inhibition ([9]; BrUra 4.5 mM, with 50 μM dUrd): 67%
- % Growth Inhibition ([9]; BrUra 4.5 mM, without dUrd): 65%

Structure (SMILES): OC[C@H]1O[C@@H](n2cnc3c(O)ncnc32)C[C@@H]1O [dIno, deoxyinosine]
- enhancement of BrUra trapping in DNA [10]: 6 fold

Structure (SMILES): O=c1ccn([C@H]2C[C@H](O)[C@@H](CO)O2)c(=O)[nH]1 [dUrd]
- enhancement of BrUra trapping in DNA [10]: 24 fold

Structure (SMILES): C#Cc1c[nH]c(=O)[nH]c1=O [eniluracil]
- increase of incorporation of radioactivity into DNA from [3H]-BrUra [11]: five-fold
